Measurements as given in patent US20100152140A1, “Method of Cancer Treatment with Naphthol Analogs” (priority 2007, published 2010).

Experiments:
H1734 cells [1] = experiment: MTT viability, protection from Ro-31-8220 induced cytotoxicity; type: cell-based, human; conditions: H1734, inhibitor 2 h then 20 μM Ro-31-8220, 24 h
Experimental: (§1) The cytotoxic activity of Ro-31-8220 was also determined against the all four NSCLC cells and NHTBE cells. Briefly, the cells (2,000/well) were incubated in triplicate in 96-well plates in the presence or absence of indicated test samples in a final volume of 0.2 ml for different days at 37° C. Afterwards, we performed the MTT assay.

[2] = test system: NSCLC cells (H1734, H226, A549, H292); experiment: MTT assay, NSCLC cell lines; type: cell-based, human
Experimental: as §1

NHTBE cells = experiment: MTT assay, NHTBE cells; type: cell-based, human; conditions: NHTBE cells compared with NSCLC cells
Experimental: as §1

[3] = test system: CRE consensus oligonucleotide binding; experiment: EMSA of CRE consensus oligonucleotide binding, H1734 nuclear extracts; type: cell-based, human; conditions: serum free media
Experimental: Electrophoretic Mobility Shift Assay. Isolation of nuclear extracts, sequences, preparation of oligonucleotide probes, electrophoretic mobility shift assay (EMSA) was conducted as previously described (19).

H226 cells = experiment: Soft agar colony assay, H226; type: cell-based, human; conditions: H226, 2 μM, 28 days
Experimental: (§2) Soft Agar Colony Assay. Single-cell suspensions of the H1734 and H226 cells were treated with or without different concentrations of Ro-31-8220 and then mixed with agarose to a final concentration of 0.35%. Aliquots of 1.5 ml containing 10^4 cells and 10% fetal calf serum were plated in triplicate in six-well plates over a base layer of 0.7% agarose and allowed to gel. The number of colonies that were greater than 60 μm was counted after 28 days of incubation.

H1734 cells [4] = experiment: Western blot of apoptosis cleavage products (PARP, caspase-9, caspase-3); type: cell-based, human
Experimental: (§3) Western Blot Analysis. Protein extracts from each of NSCLC cells and the NHTBE cells, were prepared by lysing the cells in SDS lysis buffer (250 mM Tris-Cl, pH 6.5, 2% SDS, 4% β-mercaptoethanol, 0.02% bromophenol blue, 10% glycerol) containing protease and phosphatase inhibitors. Standard SDS-PAGE and Western blotting procedures were used to analyze the cell extracts. Nitrocellulose blots were probed with anti-CREB and anti-phospho-specific pSer-133 CREB (Upstate Biotechnology, Waltham, Mass.); anti-Bcl-2, anti-Bcl-XL, anti-phospho-Erk1/2, and anti-Erk1/2 (Santa Cruz Biotechnology, Santa Cruz, Calif.); and anti-phospho-Rsk and anti-Rsk (Cell Signaling Technology, Cambridge, Mass.). To detect the cleavage products of apoptosis, nitrocellulose blots were probed with anti-poly (ADP-ribose) polymerase (PARP), anti-caspase-9, and anti-caspase-3 antibodies (New England Biolabs, Beverly, Mass.). Anti-actin antibodies were purchased from Sigma-Aldrich (St. Louis, Mo.) and the caspase-3 inhibitor Ac-DEVD-CHO was obtained from Promega (Madison, Wis.).

interleukin-6 = conditions: human cord blood-derived mast cells, mouse bone marrow-derived mast cells; cited from earlier work
phospho-Rsk = experiment: Western blot of phospho-Rsk in H1734 cells; type: cell-based, human; conditions: serum free media
Experimental: as §3

[5] = test system: nuclear transcription factor kappa B-dependent transcription; conditions: pulmonary A549 cells; cited from earlier work
H1734 cells [6] = experiment: Soft agar colony assay, H1734; type: cell-based, human; conditions: H1734, 2 μM, 28 days
Experimental: as §2

H1734 cells [7] = experiment: TUNEL apoptosis assay; type: cell-based, human; conditions: H1734, 5 μM, 48 h
Experimental: Apoptosis Assay. H1734 cells (200,000) were plated in chamber slides; the next day, transfected with CREBwt, KCREB, and CREB133 DNA (100 ng/chamber), and with 100 nM siCREB. The terminal transferase dUTP nick end labeling (TUNEL) assay was performed according to the manufacturer's instructions (Promega). Briefly, the cells were fixed after 48 h of transfection in 4% formaldehyde and permeabilized with 0.5% Triton-X-100. The cells were incubated on the slides with terminal deoxynucleotidyl transferase and fluorescein-dUTP. They were then co-stained with DAPI and visualized with an Axioskop 40 fluorescence microscope (Carl Zeiss, Thornwood, N.Y.). Three fields were randomly counted for each sample. The images were captured at a magnification of 400× and stored using Axiovision software (Carl Zeiss), as described in the instructions provided by the manufacturer.

CREB = experiment: Western blot of p-CREB (CREB activation) in H1734 cells; type: cell-based, human; conditions: serum free media, time course and various concentrations for 4 h
Experimental: as §3

H1734 cells [8] = experiment: Flow cytometric cell cycle analysis; type: cell-based, human; conditions: H1734, 10 μM
Experimental: Flow Cytometric Analysis. H1734 cells were first synchronized by serum starvation overnight and then exposed to Ro-31-8220 for different lengths of time in the presence of 5% serum. The cells were washed, trypsinized, and fixed in 70% ethanol for 1 h at −20° C. Finally, cells were washed with PBS, resuspended, and stained in PBS containing 25 μg of propidium iodide and 1 μg/ml RNAase a for 30 min at room temperature. The distribution of cells during the cell cycle was then analyzed with a Facscalibur flow cytometer (Becton Dickinson, Bedford, Mass.).

[9] = test system: U937 human leukemia cells; conditions: cited from earlier work
phospho-Erk1/2 = experiment: Western blot of phospho-Erk1/2 in H1734 cells; type: cell-based, human
Experimental: as §3

pCREB = experiment: Immunocytochemistry for pCREB localization in H1734 cells; type: cell-based, human; conditions: 20 μM, 4 h, serum free media
Experimental: Immunocytochemistry for CREB Localization. H1734 cells (1×10^5 cells/ml) were plated on a glass chamber slide (Falcon; BD Biosciences, San Jose, Calif.) for adherence and treated the next day for 4 h with Ro-31-8220. The chambers were removed, and cells were fixed with cold acetone. After a brief washing in PBS, the slides were blocked with 5% normal goat serum in PBS for 1 h and then incubated for 4 h with rabbit polyclonal anti-pCREB antibody (dilution, 1:100). The slides were washed, incubated with goat anti-rabbit IgG-Alexa 594 (Molecular Probes, Eugene, Oreg.) (dilution 1:100) for 1 h, and counter-stained for nuclei with 4′,6-diamidino-2-phenylindole, dihydrochloride (DAPI; 50 ng/ml) (Molecular Probes, Eugene, Oreg.) for 15 min. The slides were mounted with a mounting medium (Sigma-Aldrich), and confocal images were captured with an Olympus FV500 confocal microscope (NY) by using a Plan Apo 60× oil objective.

CC(=O)N[C@@H](CC(=O)O)C(=O)N[C@@H](CCC(=O)O)C(=O)N[C@H](C(=O)N[C@H](C=O)CC(=O)O)C(C)C [Ac-DEVD-CHO]
protection from Ro-31-8220 induced cytotoxicity (H1734 cells [1]): protected the cells

O=S(=O)(NCCNC/C=C/c1ccc(Br)cc1)c1cccc2cnccc12 [H-89]
cell growth of NSCLC cell lines ([2]; compared with Ro-31-8220): not significantly inhibiting the cell growth

Cn1cc(C2=C(c3cn(CCCSC(=N)N)c4ccccc34)C(=O)NC2=O)c2ccccc21 [Ro-31-8220, 2-{1-[3-(Amidinothio)propyl]-1H-indol-3-yl}-3-(1-methylindol-3-yl)maleimide]
suppression of mitochondrial activity (MTT) (NHTBE cells): significantly less than that in the NSCLC cells | CRE consensus oligonucleotide binding [3]: suppressed in a time dependent and dose dependent manner | decrease in colony formation (H226 cells): 85% | PARP cleavage (H1734 cells [4]; H1734, 20 μM Ro-31-8220): cleavage of a 118-kDa PARP protein into an 87-kDa fragment | caspase-9 activation (H1734 cells [4]; H1734, 20 μM Ro-31-8220, 47-kDa to 37-kDa band): time-dependent activation | caspase-3 activation (H1734 cells [4]; H1734, 20 μM Ro-31-8220, 24 h): activation of caspase-3 | autocrine growth factor interleukin-6 (interleukin-6): suppress | concentration at which decrease of phospho-Rsk began (phospho-Rsk; 4 h): 5 µM | time to suppression of phospho-Rsk (phospho-Rsk): ≤ 2 h | NF-kappa B-dependent transcription [5]: suppress | decrease in colony formation (H1734 cells [6]): 85% | cells in which apoptosis was induced (TUNEL) (H1734 cells [7]): 52% | mitochondrial activity (MTT), cell growth ([2]; all four NSCLC cell lines, dose-dependent): suppressed mitochondrial activity | CREB activation (p-CREB) (CREB): substantially suppressed | percentage of cells in the G2 phase (H1734 cells [8]; 6 h, controls 18%): 24.5% | percentage of cells in G2 phase (H1734 cells [8]; 24 h, controls 15%): 53% | apoptosis in U937 human leukemia cells [9]: induces apoptosis | proliferation of U937 human leukemia cells [9]: suppressed the proliferation | time to start of decrease of phospho-Erk1/2 expression (phospho-Erk1/2): ≤ 30 min | concentration at which decrease of phospho-Erk1/2 began (phospho-Erk1/2; 4 h): 5 µM | nuclear pCREB localization (pCREB): induced the nuclear disappearance of pCREB
